Measurements: patent publication US12577530B2, “Generation of a population of hindbrain cells and hindbrain-like organoids from pluripotent stem cells” (The Regents of the University of California, priority 2018, dated 2026)

What was measured:
WTB and WTC hPSCs = experiment: WNT activation (CHIR 99021) during V2a interneuron differentiation, flow cytometry of CHX10; format: cell-based, human; details: 2 μM CHIR99021 pretreatment two days and first 7 days of protocol, compared to untreated (UT) controls
Description: To examine pretreatment effects of WNT, hiPSCs were plated onto a Matrigel-coated 24-well plate at 125,000 cells/cm^2 in mTeSR supplemented with 10 μM ROCK inhibitor and 2 μM CHIR99021. Two days later, the cell layers were dissociated with Accutase and the differentiation was performed as described above with the addition of 2 μM CHIR99021. The CHIR99021 treatment was continued until day 7.

hPSCs = experiment: Monolayer hindbrain differentiation with varied pur or RA concentration, flow cytometry of CHX10 and LHX5; format: cell-based, human
Description: hPSCs were seeded in mTeSR supplemented with 10 μM ROCK inhibitor and dual SMAD inhibitors 0.2 μM LDN193189 and 10 μM SB431542 (StemGent, Cambridge, MA) at 5,000-100,000 cells/cm^2 onto 24-well plates coated with Matrigel. On day 3, medium was changed to m TeSR supplemented with dual SMAD inhibitors only. On day 5, the base medium was switched to neural induction medium (DMEM F: 12 (Corning, Corning, NY), N2 supplement (Life Technologies, Carlsbad, CA), L-Glutamine (VWR), 2 μg/ml heparin (Sigma Aldrich, St. Louis, MO), non-essential amino acids (Mediatech INC, Manassas, VA), penicillin-streptomycin (VWR) supplemented with fresh 0.4 ug/ml ascorbic acid (Sigma Aldrich) and 10 ng/ml brain derived neurotrophin factor (BDNF, R&D Systems, Minneapolis, MN)) supplemented with dual SMAD inhibitors and 10 nM-10 μM retinoic acid (Sigma Aldrich). On day 7, dual SMAD inhibition was ceased and 10 nM-10 μM retinoic acid, 10 nM-10 μM pur (EMD Millipore, Darmstast, Germany) and 1 μM N—[N-(3,5-difluorophenacetyl)-L-alanyl]-S-phenylglycine t-butyl ester (DAPT) were added to the neural induction medium. Medium was changed every 2-3 days throughout the differentiation, with fresh supplements added each time for up to 17 days.
At day 17 of differentiation, cells were completely dissociated as described in 3.3.3 and stained with the Transcription Factor Buffer Set, which includes a fixation/permeabilization (FP) and wash/permeabilization (WP) buffer (BD Biosciences, Franklin Lakes, NJ). Dissociated samples were first fixed for 45 minutes at 4° C. in the FP buffer followed by a 20-minute block with WP buffer containing 5% normal donkey serum (NDS, Jackson Laboratory, Bay Harbor, ME). Primary antibodies against CHX10, LHX5, PHOX2A, and PHOX2B (Table 1) and the proper matching species isotype control were added into WP buffer containing 2% NDS and incubated at 4° C. for 45 minutes. After two washes with WP buffer, secondary antibodies donkey anti-mouse IgG, ALEXA FLUOR™ 488 (a fluorescent compound; Life Technologies), at a dilution of 1:200, were added to WP buffer and incubated at 4° C. for 45 minutes. After two washes with WP buffer, samples were passed through a 35-μm filter before assessing with a BD ACCURI™ C6 (BD) cytometer (minimum 10,000 events). Cytometry analysis was performed using FlowJo V10 (Flowjo, Ashland, OR).

Human PSCs (organoids) [1] = experiment: Organoid diameter from phase contrast images; format: cell-based
Description: Human PSCs were seeded at 125 k cells/cm^2 in mTeSR supplemented with 10 μM ROCK inhibitor and 2 μM CHIR99102. For WNT treated cells, CHIR was supplemented into the media at each feed through day 7. 48 hours later, cell layers were dissociated using Accutase and counted. For organoid culture, 800 μm pyramidal PDMS inserts were placed into 24-well plates. 1 ml mTeSR containing 10 μM ROCK inhibitor was added to the wells containing the molds and the plate was centrifuged at 2,000×g for 3 minutes to get rid of any bubbles. Dissociated cells, either hPSCs or WNT pre-treated cells, were then added slowly into the wells at 10,000 cells per organoid in mTeSR supplemented with 10 μM ROCK inhibitor, 0.2 LDN193189, and 10 μM SB431542 ([…], Cambridge, MA). […] To change the media on the cells for the rest of the differentiation, the organoids were pipetted into a conical and allowed to settle. Old media was aspirated off and new media was used to resuspend the organoids and transfer them back to the 6 well. On day 3, medium was changed to mTeSR supplemented with dual SMAD inhibitors only. […] Phase contrast images of the organoids were taken using the EVOS® FL Imaging System. The size analysis performed in FIG. 12 was performed manually using Image J. The size analysis performed in FIG. 13 was done using a Python script to first segment the organoids using a watershed segmentation algorithm. […]

organoids = experiment: Calcium imaging of maturing organoids (Ca^2+ fluctuations); format: cell-based, human; details: day 33 onward
Description: On day 17 of differentiation, organoids were switched to neural maturation medium (BRAINPHYS™ (neurophysiological basal medium) plus SM1 supplement (Stemcell Technologies (Bardy, van den Hurk et al. 2016)) supplemented with 10 ng/ml of BDNF, GDNF, CNTF, and IGF, R&D Systems). Medium was completely changed every 5 days for the remainder of the culture duration.
Endogenous GCaMP6 signal was used to detect calcium flux in differentiations performed with the WTC GCaMP6 cell line. Alternatively, cultures of cells that lacked GCaMP expression were washed with PBS and the medium was replaced with NEUROBASAL™ (neural cell culture medium) plus Fluo4 AM (5 μM, Life Technologies) for 1 hour at 37° C. The cultures were then washed with fresh Neurobasal and allowed to recover for an additional […] at 37° C. before recording on a Zeiss Axio Observer. To assess Ca^2+ fluctuations, cultures were imaged at a rate of 17 frames per second. To analyze the results, ROI were selected by hand using Zen software. For organoids, the outer edge of the tissue was selected and for monolayer cultures, individual neurons were selected. The relative fluorescent units (RFU) measured at the ROIs were processed using Python3. A detrend function with a robust linear regression was performed for normalization and a 4 Hz lowpass Butterworth filter was applied to minimize noise.

Human PSCs (organoids) [2] = experiment: 3D organoid hindbrain differentiation, flow cytometry of CHX10, LHX5, PHOX2A, PHOX2B at day 17; format: cell-based
Description: Human PSCs were seeded at 125 k cells/cm^2 in mTeSR supplemented with 10 μM ROCK inhibitor and 2 μM CHIR99102. For WNT treated cells, CHIR was supplemented into the media at each feed through day 7. 48 hours later, cell layers were dissociated using Accutase and counted. For organoid culture, 800 μm pyramidal PDMS inserts were placed into 24-well plates. 1 ml mTeSR containing 10 μM ROCK inhibitor was added to the wells containing the molds and the plate was centrifuged at 2,000×g for 3 minutes to get rid of any bubbles. Dissociated cells, either hPSCs or WNT pre-treated cells, were then added slowly into the wells at 10,000 cells per organoid in mTeSR supplemented with 10 μM ROCK inhibitor, 0.2 LDN193189, and 10 μM SB431542 ([…], Cambridge, MA). […] To change the media on the cells for the rest of the differentiation, the organoids were pipetted into a conical and allowed to settle. Old media was aspirated off and new media was used to resuspend the organoids and transfer them back to the 6 well. On day 3, medium was changed to mTeSR supplemented with dual SMAD inhibitors only. […] To dissociate organoid cultures, samples were collected and washed with 1 mL of PBS. The organoids were then transferred to 1 well of a 6-well plate with 2 ml of accutase and incubated on the rotary at 37° C. for 15 minutes. […] The dissociated cells were then transpired to a 15 mL conical and diluted with 3 times the volume of PBS.

[3] = pur 100 nM and RA 100 nM, day 17 (FIG. 12F)

## Cc1cnc(-c2cnc(NCCNc3ccc(C#N)cn3)nc2-c2ccc(Cl)cc2Cl)[nH]1 [CHIR 99021, 6-[[2-[[4-(2,4-Dichlorophenyl)-5-(5-methyl-1H-imidazol-2-yl)-2-pyrimidinyl]amino]ethyl]amino]-3-pyridinecarbonitrile]
WTB and WTC hPSCs
  CHX10 percentage: increased

## CC1=C(/C=C/C(C)=C/C=C/C(C)=C/C(=O)O)C(C)(C)CCC1 [RA, retinoic acid]
hPSCs; pur constant at 100 nM
  RA concentration at which CHX10 percentage peaked: 30 to 100 nM
  RA concentration at which LHX5 percentage peaked: 10 nM

## c1ccc2c(Oc3nc(Nc4ccc(N5CCOCC5)cc4)c4ncn(C5CCCCC5)c4n3)cccc2c1 [pur, 9-Cyclohexyl-N-[4-(4-morpholinyl)phenyl]-2-(1-naphthalenyloxy)-9H-purin-6-amine]
Human PSCs (organoids) [1]; 10 nM and 100 nM pur groups, throughout the differentiation
  organoid diameter: ~500 μm
Human PSCs (organoids) [1]; 1 μM pur group, by day 17
  organoid diameter: approximately 700 μm
organoids; organoids differentiated with 10 nM pur (V0^lowV2a^low)
  periodic synchronous Ca^2+ fluctuations: few periodic synchronous events
organoids; organoids differentiated with 100 nM pur (V0^highV2a^low)
  periodic synchronous Ca^2+ fluctuations: more rhythmic overall
organoids; organoids differentiated with 1 μM pur (V0^lowV2a^high)
  periodic synchronous Ca^2+ fluctuations: more sporadic
hPSCs; at 10 and 30 nM pur compared to 100 nM pur, RA kept at 100 nM, p<0.05
  LHX5 percentage: increased
hPSCs; at 30 and 100 nM pur, RA kept at 100 nM, p<0.05
  CHX10 percentage: greater
Human PSCs (organoids) [2]; 10 nM pur, day 17 (FIG. 13D)
  percentages of V2a, V0 and chemosensing subtypes: low percentages of all subtypes
Human PSCs (organoids) [2]; 100 nM and 1 μM pur condition versus 10 nM, day 17
  PHOX2A and PHOX2B percentages: highest
Human PSCs (organoids) [2]; 100 nM pur, day 17 (FIG. 13D)
  percentage of CHX10 positive cells: 3.5%
  percentage of LHX5 positive cells: 36.5%
Human PSCs (organoids) [2]; 1 μM pur, day 17 (FIG. 13D)
  percentage of CHX10 positive cells: 23.3%
  percentage of LHX5 positive cells: 3.1%
Human PSCs (organoids) [2]; [3]
  percentage of CHX10^+ cells: < 5%
  percentage of LHX5^+ cells: ~80%
  percentage of PHOX2A^+ cells: < 5%
  percentage of PHOX2B^+ cells: < 5%
